Data as given in US8664271B2, “Stabilized leukotriene B4 (LTB4) agent pharmaceutical formulation” (LTB4 Sweden AB, priority 2004, dated 2014).

Experiments:
[1] = Forced degradation of ethanolic solutions of LTB4 (acid form and Na salt); assay type: physicochemical
Protocol: The ethanolic solution of LTB4 (acid form) (EtOH/water, 95/5) obtained from the manufacturer (Cascade Biochem, UK) was diluted with EtOH/water, 95/5 to generate ethanolic solutions of LTB4 (acid form) at 9 and 0.9 mg/ml. Ethanolic solutions of the sodium salt of LTB4 at 9 and 0.9 mg/ml were obtained by adding 1.05 equivalent of sodium hydroxide. Solutions of the sodium salt of LTB4 at the concentration of 9 and 0.9 mg/ml in 75/25 EtOH/10 mM glycine in water at pH 10.5 (sodium hydroxide), were obtained by mixing 3 volumes of solutions of the sodium salt of LTB4 at 12 and 1.2 mg/ml in EtOH/water, 95/5 with 1 volume of 40 mM glycine buffer at pH 10.5. Solutions were dispensed in 2 ml vials for storage under air in the dark at −80° C. and 40±5° C. for 17 months prior to reverse phase HPLC analysis of LTB4 and impurities as described in Example 1.

[2] = Pharmacokinetics of LTB4 in rats after i.v., i.j. and s.c. administration (plasma ELISA); assay type: in vivo, female Sprague-Dawley rats; conditions: rat
Protocol: In this example, the pharmacokinetics of LTB4 in rats following administration by three distinct routes, intravenous (i.v.), intra-jejunal (i.j.) and sub-cutaneous (s.c.) was investigated.
Three groups of three female Sprague-Dawley rats (weighing ˜250 g) were used; animals were fasted for 18 hours, anesthetised with ketamine/xylazine and their jugular veins were canulated to allow for repeated blood sampling. LTB4 was administered at the dose of 50 μg/kg at the dose volume of 4 ml/kg for all routes. Blood samples (0.5 ml/sample) where taken at 0, 0.5, 1, 2, 5, 15, 30, and 60 minutes following LTB4 injection. The blood samples where immediately anti-coagulated with EDTA and transferred into an ice-water bath until centrifugation for plasma isolation. Plasma samples were stored at −80° C. until assayed for LTB4 content using a commercial ELISA (Cayman Chemicals, Ann Arbor, Mich., USA). The i.v administration (15 sec. bolus) of LTB4 was done through the tail vein; for i.j. administration, LTB4 was directly injected in the jejunum after opening of the abdominal cavity; s.c. administration was done in the dorsal region.

With CCCCC/C=C\C[C@@H](O)/C=C/C=C/C=C\[C@@H](O)CCCC(=O)O [LTB4, 5S,12R-dihydroxy-6,8,10,14(Z,E,E,Z)-eicosatetrae-noic acid] the impurity level ([1]; 0.9 mg/ml in 95/5 EtOH/water, 17 months at 40° C.) was 62 % of AUC, the level of impurities ([1]; 9.0 mg/ml in EtOH/water 95/5, 17 months at 40° C., AUC at 270 nm) was 100 % of AUC and the “time of maximum plasma LTB4 level” value ([2]; i.j. administration, 50 μg/kg) was 5 min. The “time of return of LTB4 plasma levels to baseline” value ([2]; i.j. administration, 50 μg/kg) was 30 min, the “AUC for LTB4 plasma concentration, comparison of routes” value ([2]; i.v. injection, 50 μg/kg, compared with i.j. and s.c.) was “highest AUC” and the “AUC for i.j. injection relative to that of i.v. LTB4” value ([2]; in vivo, 50 ug/kg) was 35%.
